Measured values as given in patent US20260284011A1, “COMPOUNDS FOR RESTORING SUSCEPTIBILITY TO BETA-LACTAM ANTIBIOTICS” (UNIVERSITY OF NOTRE DAME DU LAC, priority 2023, published 2026).

Tests used:
[1] = test system: S. aureus NRS144pCN52RI-Venus; assay: Bacterial growth inhibition (OD600) in the fluorescent screening assay; type: cell-based, Staphylococcus aureus; conditions: compound at 100 mg/L^−1; OD600 after 2 h
Protocol: (§1) The collection of the 100 compounds from the in-silico search was screened against S. aureus NRS144pCN52RI-Venus. The screening strategy was as follows. Bacteria grown to OD600 of 0.25 were exposed concurrently to CBAP (10 mg·L^−1) and the test compound (100 mg·L^−1). Fluorescence was recorded after two hours of incubation. OD600 values were also recorded to identify compounds with inherent antibacterial activity. Compound 1 (Chart 1) emerged—82% diminished fluorescence as an indication of the extent of BlaR inhibition—as a suitable template for structure elaboration. This effort led to the synthesis of several dozen benzimidazole and imidazole compounds. The progression of the iterative design is depicted in Chart 1 for four compounds, culminating in 4. […] The X-ray structures for the complexes of compounds 2 (non-covalent) and 4 (covalent) with the BlaR sensor domain are shown respectively in FIG. 2b (2.0 Å resolution) and FIG. 2c (1.97 Å resolution). Compound 4 makes a covalent bond with the catalytic Ser389 and creates a network of hydrogen bonds with the BlaR active site (FIG. 2c).
(§2) Fluorescent assay for screening of BlaR potential inhibitors. A 3-mL portion of lysogeny broth (LB) medium was inoculated with NRS144pCN52RI Venus from frozen stocks and grown overnight at 37° C. The overnight culture was then diluted 1:150 fold with fresh LB containing […] of erythromycin and incubated at 37° C. to an OD600 of 0.3, at which point fluorescence was induced by the addition of CBAP to a final concentration of 10 μg·mL^−1. The culture was aliquoted (99 L) into 96-well plate and 1 L of inhibitor solution (1 mg·mL^−1 in DMSO) was added to each well. Negative control (DMSO without CBAP) and positive control (CBAP without inhibitor) were included. The plate was incubated at 30° C. for 2 h with intermittent shaking. Fluorescence and OD600 measurements were taken by a Cytation-5 multimode microplate reader. Percent inhibition of BlaR and bacterial growth were calculated using absorbance unit (AU) and OD600 values of each sample entered into this formula: […]

BlaR = BlaR (Staphylococcus aureus, UniProt P18357); assay: Live-cell fluorescent assay for BlaR inhibition (Venus reporter); type: cell-based, S. aureus NRS144pCN52RI-Venus; conditions: compound at 100 mg/L^−1; CBAP 10 mg·L^−1; fluorescence after 2 h
Chain of BlaR (P18357 whole entry): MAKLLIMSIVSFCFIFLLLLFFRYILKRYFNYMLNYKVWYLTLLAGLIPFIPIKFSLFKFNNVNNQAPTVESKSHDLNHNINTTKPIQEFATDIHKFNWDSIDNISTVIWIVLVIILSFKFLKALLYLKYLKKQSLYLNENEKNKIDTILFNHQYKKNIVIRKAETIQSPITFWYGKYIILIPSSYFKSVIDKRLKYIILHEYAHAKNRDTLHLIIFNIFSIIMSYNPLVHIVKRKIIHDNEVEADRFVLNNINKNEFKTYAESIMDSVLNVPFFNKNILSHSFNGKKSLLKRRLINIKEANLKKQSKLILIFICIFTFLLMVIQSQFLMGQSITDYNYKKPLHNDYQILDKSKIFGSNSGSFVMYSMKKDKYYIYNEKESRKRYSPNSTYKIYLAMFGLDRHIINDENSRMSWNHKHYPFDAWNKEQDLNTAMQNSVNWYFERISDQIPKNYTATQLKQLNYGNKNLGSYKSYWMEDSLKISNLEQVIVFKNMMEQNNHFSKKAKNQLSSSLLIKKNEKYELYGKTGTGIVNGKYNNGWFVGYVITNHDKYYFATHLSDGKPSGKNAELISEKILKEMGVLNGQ
From the text: Live-Cell Fluorescent Assay in Discovery and Mechanism of Action. We conceived of fluorescent constructs in the bla operon, for the purpose of screening (FIG. 2a). We removed the gene for the β-lactamase (blaZ) and put in its place individually the genes for the Green Fluorescent Protein (GFP), Venus (a yellow-fluorescent protein) or mCherry (a red-fluorescent protein) in the template plasmid pCN52. The three plasmids were named pCN52RI, pCN52RI-Venus and pCN52RI-mCherry, respectively. The genes for the fluorescent proteins were transcribed under the promoter of the blaZ gene and were regulated by the proteins BlaR and BlaI, as is the case for the wild-type bla operon.
We transformed separately S. aureus NRS144—a laboratory strain that accepts a foreign gene and harbors neither the bla nor the mec operons—with each of these plasmids. […] When induced, the fluorescent protein is produced and is detected (akin to expression of the resistance genes blaZ or mecA in typical MSSA and MRSA). […] The transformed strains were grown in tryptic soy broth medium for overnight culture and strain maintenance and incubated in cation-adjusted Mueller-Hinton broth medium for inhibitor screening in a 96-well microplate format. The culture without CBAP addition was the negative control. In order to select a desirable reporter construct, we compared the intensity of the fluorescence produced from each construct at the wavelengths given in FIG. 2a using the Cytation-5 multi-mode microplate reader. Among the three constructs, pCN52RI-Venus produced the best fluorescence intensity and pCN52RI-mCherry was the second best (FIG. 4).
as §1, §2

Compound: CC(=O)NCc1ccc2nc(S)n(Cc3ccc(C(F)(F)F)cc3C(F)(F)F)c2c1
- % Inhibition of bacterial growth [1]: 0%
- % Inhibition of BlaR (BlaR): 70%

Compound: OC[C@@H](O)[C@H](O)[C@H](O)c1cn(Cc2ccccc2)c(=S)[nH]1
- % Inhibition of bacterial growth [1]: 0%
- % Inhibition of BlaR (BlaR): 13%

Compound: OC[C@@H](O)[C@@H](O)c1cn(Cc2ccccc2)c(=S)[nH]1
- % Inhibition of bacterial growth [1]: 0%
- % Inhibition of BlaR (BlaR): 11%

Compound: O=S(=O)(O)c1nc2ccccc2n1Cc1ccc(C(F)(F)F)cc1C(F)(F)F [Compound 1, 1-[[2,4-Bis(trifluoromethyl)phenyl]methyl]benzimidazole-2-sulfonic acid]
- % Inhibition of bacterial growth [1]: 0%
- % Inhibition of BlaR (BlaR): 82%

Compound: OCc1cn(Cc2ccc(C(F)(F)F)cc2C(F)(F)F)c(=S)[nH]1 [Compound 2, 4-(Hydroxymethyl)-1-[[2,4-bis(trifluoromethyl)phenyl]methyl]-2H-imidazole-2-thione]
- % Inhibition of bacterial growth [1]: 0%
- % Inhibition of BlaR (BlaR): 92%

Compound: OB(O)CSc1nc2ccccc2n1Cc1ccc(C(F)(F)F)cc1C(F)(F)F [Compound 3]
- % Inhibition of bacterial growth [1]: 20%
- % Inhibition of BlaR (BlaR): 98%

Compound: FC(F)(F)c1ccc(Cn2c(=S)[nH]c3ccccc32)c(C(F)(F)F)c1 [Compound 8, 1-[[2,4-Bis(trifluoromethyl)phenyl]methyl]benzimidazole-2-thione]
- % Inhibition of bacterial growth [1]: 10%
- % Inhibition of BlaR (BlaR): 65%

Compound: N#Cc1ccc2c(c1)[nH]c(=S)n2Cc1ccc(C(F)(F)F)cc1C(F)(F)F [Compound 9, 1-[2,4-bis(trifluoromethyl)benzyl]-5-nitrile-benzimidazole-2-thione]
- % Inhibition of bacterial growth [1]: 97%

Compound: O=S(=O)(O)c1nc2ccccc2n1Cc1ccc(F)cc1C(F)(F)F [Compound 11]
- % Inhibition of bacterial growth [1]: 0%
- % Inhibition of BlaR (BlaR): 78%

Compound: O=S(=O)(O)c1nc2ccccc2n1Cc1ccc(Cl)cc1 [Compound 12]
- % Inhibition of bacterial growth [1]: 0%
- % Inhibition of BlaR (BlaR): 72%

Compound: O=S(=O)(O)c1nc2ccccc2n1Cc1ccccc1C(F)(F)F [Compound 13]
- % Inhibition of bacterial growth [1]: 0%
- % Inhibition of BlaR (BlaR): 69%

Compound: NCc1ccc2nc(S)n(Cc3ccc(C(F)(F)F)cc3C(F)(F)F)c2c1 [Compound 14]
- % Inhibition of bacterial growth [1]: 0%
- % Inhibition of BlaR (BlaR): 60%

Compound: COC(=O)c1ccc2nc(S)n(Cc3ccc(C(F)(F)F)cc3C(F)(F)F)c2c1 [Compound 15]
- % Inhibition of bacterial growth [1]: 0%
- % Inhibition of BlaR (BlaR): 10%

Compound: COC(=O)c1ccc2nc(S(=O)(=O)O)n(Cc3ccc(C(F)(F)F)cc3C(F)(F)F)c2c1 [Compound 16]
- % Inhibition of bacterial growth [1]: 0%
- % Inhibition of BlaR (BlaR): 20%

Compound: OCc1ccc2nc(S)n(Cc3ccc(C(F)(F)F)cc3C(F)(F)F)c2c1 [Compound 17]
- % Inhibition of bacterial growth [1]: 99%
- % Inhibition of BlaR (BlaR): 0%

Compound: O=S(=O)(O)c1nc2ccc(CO)cc2n1Cc1ccc(C(F)(F)F)cc1C(F)(F)F [Compound 18]
- % Inhibition of bacterial growth [1]: 0%
- % Inhibition of BlaR (BlaR): 97%

Compound: N#Cc1ccc2nc(N)n(Cc3ccc(C(F)(F)F)cc3C(F)(F)F)c2c1 [Compound 19]
- % Inhibition of bacterial growth [1]: 0%
- % Inhibition of BlaR (BlaR): 55%

Compound: COC(=O)c1ccc2nc(N)n(Cc3ccc(C(F)(F)F)cc3C(F)(F)F)c2c1 [Compound 20]
- % Inhibition of bacterial growth [1]: 0%

Compound: Nc1nc2ccc(CO)cc2n1Cc1ccc(C(F)(F)F)cc1C(F)(F)F [Compound 21]
- % Inhibition of bacterial growth [1]: 0%
- % Inhibition of BlaR (BlaR): 89%

Compound: O=C(/C=C/c1ccc(F)cc1)NCc1ccc2nc(S)n(Cc3ccc(C(F)(F)F)cc3C(F)(F)F)c2c1 [Compound 23]
- % Inhibition of bacterial growth [1]: 70%
- % Inhibition of BlaR (BlaR): 76%
